For experiment [1], the target named is Ribosomal protein S6 kinase beta-2 (Homo sapiens) (UniProt Q9UBS0). In words: Selectivity interaction (Kinase panel (KiNativ target engagement assay in Jurkat cells)) EUB0001635a RPS6KB2. The settings on record: Selectivity number of off-targets 0.0, Selectivity number of targets 233.0, Source Knowledge https://www.sciencedirect.com/science/article/pii/S2451945619300674?via%3Dihub, at 1 µM. In kind it is cell-based.

For experiment [2], the target named is T1, Serine/threonine-protein kinase Nek2 (Homo sapiens) (UniProt P51955).
T1 sequence (whole entry): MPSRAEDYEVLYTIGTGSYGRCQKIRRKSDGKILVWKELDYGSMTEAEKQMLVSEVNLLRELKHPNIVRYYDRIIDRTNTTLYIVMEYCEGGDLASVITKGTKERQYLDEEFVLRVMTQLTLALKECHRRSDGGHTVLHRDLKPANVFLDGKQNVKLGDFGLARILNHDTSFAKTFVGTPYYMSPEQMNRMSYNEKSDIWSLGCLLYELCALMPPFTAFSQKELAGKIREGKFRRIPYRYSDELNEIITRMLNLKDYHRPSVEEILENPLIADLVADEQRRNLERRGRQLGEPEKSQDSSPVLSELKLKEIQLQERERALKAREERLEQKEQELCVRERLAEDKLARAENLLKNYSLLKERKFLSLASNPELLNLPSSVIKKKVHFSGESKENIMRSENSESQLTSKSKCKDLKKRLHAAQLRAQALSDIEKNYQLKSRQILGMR
The experiment can be described thus: Selectivity interaction (KinomeScan (DiscoverX)) EUB0000229b NEK2. The settings on record: at 10 µM.

Experiment [3] has as its target Cyclin-dependent kinase 14 (Homo sapiens) (UniProt O94921). The experiment can be described thus: Selectivity interaction (KinomeScan (DiscoverX)) EUB0001079a CDK14. The conditions noted are these: at 1 µM.
In experiment [4] the target is T2, 5-hydroxytryptamine receptor 2C (Homo sapiens) (UniProt P28335).
T2 sequence (whole entry): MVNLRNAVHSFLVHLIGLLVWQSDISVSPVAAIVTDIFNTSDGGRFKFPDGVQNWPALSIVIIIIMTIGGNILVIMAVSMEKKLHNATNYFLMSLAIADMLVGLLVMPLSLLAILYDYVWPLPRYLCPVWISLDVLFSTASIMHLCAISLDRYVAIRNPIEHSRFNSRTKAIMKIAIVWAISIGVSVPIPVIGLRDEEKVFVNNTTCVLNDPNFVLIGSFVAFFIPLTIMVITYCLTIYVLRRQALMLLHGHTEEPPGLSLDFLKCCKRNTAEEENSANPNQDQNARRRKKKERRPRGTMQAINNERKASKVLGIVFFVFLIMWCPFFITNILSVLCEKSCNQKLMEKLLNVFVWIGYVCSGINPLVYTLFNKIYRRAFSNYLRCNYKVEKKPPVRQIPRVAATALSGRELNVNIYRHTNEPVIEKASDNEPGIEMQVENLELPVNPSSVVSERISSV
The experiment can be described thus: Selectivity interaction (GPCR panel (PDSP screen)) EUB0001079a HTR2C. The conditions noted are these: at 10 µM.

The target in experiment [5] is Mitogen-activated protein kinase 3 (Homo sapiens, UniProt P27361). In words: Selectivity interaction (ActivX KiNativ screen (ex vivo kinase selectivity in human PBMCs)) EUB0001619a MAPK3. The conditions noted are these: PBMC, at 1 µM. In kind it is cell-based.
Mitogen-activated protein kinase 3, sequence (P27361 whole entry): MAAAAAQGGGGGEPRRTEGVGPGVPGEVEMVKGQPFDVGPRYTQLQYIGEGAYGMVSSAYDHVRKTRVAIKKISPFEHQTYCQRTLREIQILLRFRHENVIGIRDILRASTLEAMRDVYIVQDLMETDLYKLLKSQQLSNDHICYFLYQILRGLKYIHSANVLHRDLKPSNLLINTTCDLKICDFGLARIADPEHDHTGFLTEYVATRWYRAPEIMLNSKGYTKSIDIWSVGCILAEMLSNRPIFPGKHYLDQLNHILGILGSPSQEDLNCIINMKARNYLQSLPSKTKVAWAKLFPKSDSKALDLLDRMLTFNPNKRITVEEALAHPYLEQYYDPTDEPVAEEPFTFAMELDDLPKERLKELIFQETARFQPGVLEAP
Experiment [6] addresses Mitogen-activated protein kinase 9 (Homo sapiens, UniProt P45984). In words: Selectivity interaction (ActivX KiNativ screen (kinase selectivity in THP-1 cell lysates)) EUB0000639a MAPK9. In kind it is subcellular. The conditions noted are these: lysate, at 1 µM.
In experiment [7] the target is T3, Serine/threonine-protein kinase ULK3 (Homo sapiens) (UniProt Q6PHR2).
T3 sequence (whole entry): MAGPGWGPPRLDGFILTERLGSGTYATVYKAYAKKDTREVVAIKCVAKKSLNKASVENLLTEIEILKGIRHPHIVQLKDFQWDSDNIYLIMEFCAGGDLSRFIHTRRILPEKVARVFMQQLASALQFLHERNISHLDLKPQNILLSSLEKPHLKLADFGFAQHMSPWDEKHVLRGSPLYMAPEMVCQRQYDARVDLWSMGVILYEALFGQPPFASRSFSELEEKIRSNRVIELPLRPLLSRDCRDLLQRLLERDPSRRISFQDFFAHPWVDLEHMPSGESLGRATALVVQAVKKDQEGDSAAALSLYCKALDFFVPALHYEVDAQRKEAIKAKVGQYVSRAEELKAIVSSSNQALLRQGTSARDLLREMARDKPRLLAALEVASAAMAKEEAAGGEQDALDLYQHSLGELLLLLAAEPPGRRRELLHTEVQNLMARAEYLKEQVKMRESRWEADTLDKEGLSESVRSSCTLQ
In words: Selectivity interaction (ActivX KiNativ screen (kinase selectivity in THP-1 cell lysates)) EUB0000639a ULK3. In kind it is subcellular. The settings on record: lysate, at 0.2 µM.

Experiment [8] addresses Cyclin-dependent kinase 16 (Homo sapiens) (UniProt Q00536). The experiment can be described thus: Selectivity interaction (KinomeScan (DiscoverX)) EUB0001049a CDK16. The settings on record: at 1 µM.
Experiment [9] addresses Neuronal acetylcholine receptor subunit beta-2 (Homo sapiens) (UniProt P17787). The experiment can be described thus: Selectivity interaction (Eurofins CEREP Diversity Profile (receptors and ion channels)) EUB0000279b CHRNB2. The conditions noted are these: at 10 µM.
Experiment [10] addresses Mu-type opioid receptor (Homo sapiens, UniProt P35372). The experiment can be described thus: Selectivity interaction (Panel of kinases, GPCRs, ion channels and transporters (enzymatic assay)) EUB0000223bCl OPRM1.
In experiment [11] the target is Mitogen-activated protein kinase 14 (Homo sapiens, UniProt Q16539). The experiment can be described thus: Selectivity interaction (Kinase panel (DSF assay)) EUB0001559a MAPK14. A general note: In DSF a fluorescence change marks the thermal transition of the protein.
Mitogen-activated protein kinase 14, sequence (Q16539 whole entry): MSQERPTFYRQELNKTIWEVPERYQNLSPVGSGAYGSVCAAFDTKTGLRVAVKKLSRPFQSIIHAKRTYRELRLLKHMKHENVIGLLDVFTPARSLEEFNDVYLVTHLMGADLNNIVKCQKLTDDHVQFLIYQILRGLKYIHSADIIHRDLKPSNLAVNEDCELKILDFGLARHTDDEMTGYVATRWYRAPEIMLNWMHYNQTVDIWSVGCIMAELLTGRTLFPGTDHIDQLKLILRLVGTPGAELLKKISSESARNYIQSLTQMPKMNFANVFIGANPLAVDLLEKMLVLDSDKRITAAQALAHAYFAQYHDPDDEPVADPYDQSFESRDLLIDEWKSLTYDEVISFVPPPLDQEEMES
Experiment [12] has as its target Tyrosine-protein kinase receptor UFO (Homo sapiens) (UniProt P30530). In words: Selectivity interaction (KinomeScan (DiscoverX)) EUB0000618a AXL. The settings on record: at 10 µM.
Experiment [13] concerns Tyrosine-protein kinase ABL1 (Homo sapiens), P00519 [T315I]. In words: (§1) Selectivity interaction (KinomeScan (DiscoverX)) EUB0000618a ABL1. The conditions noted are these: at 10 µM.
Experiment [14] relates to Tyrosine-protein kinase ABL1 (Homo sapiens), P00519 [Q252H]. The experiment is described as §1. The conditions noted are these: at 10 µM.
In experiment [15] the test system is Tyrosine-protein kinase ABL1 (Homo sapiens), P00519 [Y253F]. The experiment is described as §1. The settings on record: at 10 µM.
Experiment [16] has as its system Tyrosine-protein kinase ABL1 (Homo sapiens), P00519 [H396P]. The description is as §1. The conditions noted are these: at 10 µM.
The subject of experiment [17] is Tyrosine-protein kinase ABL1 (Homo sapiens), P00519 [M351T]. The description is as §1. The settings on record: at 10 µM.
Experiment [18] has as its target Tyrosine-protein kinase ABL1 (Homo sapiens, UniProt P00519). The experiment is described as §1. The conditions noted are these: at 10 µM.
Experiment [19] concerns Tyrosine-protein kinase ABL1 (Homo sapiens), P00519 [F317I]. Described as §1. The settings on record: at 10 µM.
The subject of experiment [20] is Tyrosine-protein kinase ABL1 (Homo sapiens), P00519 [E255K]. The experiment is described as §1. The settings on record: at 10 µM.
The test system of experiment [21] is Tyrosine-protein kinase ABL1 (Homo sapiens), P00519 [F317L]. Described as §1. The conditions noted are these: at 10 µM.

Cyclin-dependent kinase 16 (Homo sapiens), sequence (Q00536 whole entry): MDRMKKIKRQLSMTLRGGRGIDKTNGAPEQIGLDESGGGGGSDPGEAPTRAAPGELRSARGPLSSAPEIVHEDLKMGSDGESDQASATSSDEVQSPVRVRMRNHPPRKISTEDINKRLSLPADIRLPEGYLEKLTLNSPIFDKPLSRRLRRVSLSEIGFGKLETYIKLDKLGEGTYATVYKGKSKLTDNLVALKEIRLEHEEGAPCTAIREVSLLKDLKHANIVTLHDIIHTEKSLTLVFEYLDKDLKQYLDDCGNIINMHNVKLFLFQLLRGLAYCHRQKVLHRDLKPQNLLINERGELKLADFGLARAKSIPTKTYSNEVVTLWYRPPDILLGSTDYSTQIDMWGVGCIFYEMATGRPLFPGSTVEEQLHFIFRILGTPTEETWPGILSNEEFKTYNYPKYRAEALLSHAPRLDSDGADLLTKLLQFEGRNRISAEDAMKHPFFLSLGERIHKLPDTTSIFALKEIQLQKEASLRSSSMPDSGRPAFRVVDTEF
Mitogen-activated protein kinase 9, sequence (P45984 whole entry, looked up): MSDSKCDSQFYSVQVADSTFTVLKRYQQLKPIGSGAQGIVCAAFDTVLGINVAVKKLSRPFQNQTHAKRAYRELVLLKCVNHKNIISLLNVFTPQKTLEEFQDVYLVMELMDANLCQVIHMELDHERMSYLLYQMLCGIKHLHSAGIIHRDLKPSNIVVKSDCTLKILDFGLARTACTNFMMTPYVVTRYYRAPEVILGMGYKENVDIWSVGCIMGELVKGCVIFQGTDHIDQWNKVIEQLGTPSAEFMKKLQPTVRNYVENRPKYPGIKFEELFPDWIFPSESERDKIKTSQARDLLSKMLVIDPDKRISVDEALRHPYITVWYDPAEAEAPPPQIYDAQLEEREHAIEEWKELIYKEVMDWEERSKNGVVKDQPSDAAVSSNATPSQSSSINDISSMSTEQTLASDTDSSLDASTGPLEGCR
Tyrosine-protein kinase receptor UFO (Homo sapiens), sequence (P30530 whole entry): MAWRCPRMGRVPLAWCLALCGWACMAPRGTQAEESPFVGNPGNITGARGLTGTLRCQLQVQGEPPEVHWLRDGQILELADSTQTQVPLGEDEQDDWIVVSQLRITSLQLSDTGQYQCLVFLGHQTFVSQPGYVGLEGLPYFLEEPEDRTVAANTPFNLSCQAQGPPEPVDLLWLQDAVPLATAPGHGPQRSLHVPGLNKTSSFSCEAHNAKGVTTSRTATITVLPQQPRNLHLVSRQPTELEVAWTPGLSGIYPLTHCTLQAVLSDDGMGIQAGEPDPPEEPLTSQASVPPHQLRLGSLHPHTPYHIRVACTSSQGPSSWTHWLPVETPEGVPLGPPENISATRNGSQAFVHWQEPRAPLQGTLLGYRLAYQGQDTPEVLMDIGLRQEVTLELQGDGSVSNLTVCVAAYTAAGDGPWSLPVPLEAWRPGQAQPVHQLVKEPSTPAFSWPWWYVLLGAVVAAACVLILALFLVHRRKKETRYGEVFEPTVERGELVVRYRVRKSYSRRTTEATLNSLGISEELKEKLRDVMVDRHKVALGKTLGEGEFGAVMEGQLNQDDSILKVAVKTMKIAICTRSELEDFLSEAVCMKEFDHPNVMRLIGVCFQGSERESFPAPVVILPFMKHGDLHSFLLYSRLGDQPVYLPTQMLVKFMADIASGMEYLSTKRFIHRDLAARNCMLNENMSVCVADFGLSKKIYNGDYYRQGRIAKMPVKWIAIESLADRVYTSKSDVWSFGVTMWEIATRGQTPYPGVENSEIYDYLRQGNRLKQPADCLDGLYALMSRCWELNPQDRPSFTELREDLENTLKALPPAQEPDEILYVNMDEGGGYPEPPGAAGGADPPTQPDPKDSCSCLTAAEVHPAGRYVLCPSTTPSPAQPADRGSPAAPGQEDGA
Cyclin-dependent kinase 14 (Homo sapiens), sequence (O94921 whole entry): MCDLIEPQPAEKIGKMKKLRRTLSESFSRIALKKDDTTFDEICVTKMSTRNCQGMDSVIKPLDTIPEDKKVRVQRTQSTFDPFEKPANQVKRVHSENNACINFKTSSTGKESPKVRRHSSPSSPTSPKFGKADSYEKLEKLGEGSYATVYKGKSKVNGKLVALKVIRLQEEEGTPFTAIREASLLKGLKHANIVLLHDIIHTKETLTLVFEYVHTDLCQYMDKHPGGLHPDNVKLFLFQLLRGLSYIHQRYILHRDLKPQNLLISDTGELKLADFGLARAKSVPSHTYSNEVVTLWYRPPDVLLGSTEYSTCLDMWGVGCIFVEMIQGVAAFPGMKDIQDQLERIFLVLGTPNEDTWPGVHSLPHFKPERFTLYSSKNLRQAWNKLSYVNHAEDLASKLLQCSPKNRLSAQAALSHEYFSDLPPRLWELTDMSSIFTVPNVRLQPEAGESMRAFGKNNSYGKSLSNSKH
Ribosomal protein S6 kinase beta-2 (Homo sapiens), sequence (Q9UBS0 whole entry): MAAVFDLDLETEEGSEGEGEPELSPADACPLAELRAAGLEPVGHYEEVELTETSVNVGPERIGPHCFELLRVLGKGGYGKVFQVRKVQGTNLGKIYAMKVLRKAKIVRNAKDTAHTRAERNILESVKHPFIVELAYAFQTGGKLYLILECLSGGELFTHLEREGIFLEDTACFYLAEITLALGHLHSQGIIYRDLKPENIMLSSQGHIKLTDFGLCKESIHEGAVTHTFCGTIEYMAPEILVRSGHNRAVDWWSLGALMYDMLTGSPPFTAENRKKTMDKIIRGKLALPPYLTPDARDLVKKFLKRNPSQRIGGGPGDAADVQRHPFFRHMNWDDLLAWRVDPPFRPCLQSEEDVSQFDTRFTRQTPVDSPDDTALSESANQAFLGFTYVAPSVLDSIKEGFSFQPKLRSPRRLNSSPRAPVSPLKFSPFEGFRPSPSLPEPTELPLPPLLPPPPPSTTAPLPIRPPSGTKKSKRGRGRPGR
Neuronal acetylcholine receptor subunit beta-2 (Homo sapiens), sequence (P17787 whole entry): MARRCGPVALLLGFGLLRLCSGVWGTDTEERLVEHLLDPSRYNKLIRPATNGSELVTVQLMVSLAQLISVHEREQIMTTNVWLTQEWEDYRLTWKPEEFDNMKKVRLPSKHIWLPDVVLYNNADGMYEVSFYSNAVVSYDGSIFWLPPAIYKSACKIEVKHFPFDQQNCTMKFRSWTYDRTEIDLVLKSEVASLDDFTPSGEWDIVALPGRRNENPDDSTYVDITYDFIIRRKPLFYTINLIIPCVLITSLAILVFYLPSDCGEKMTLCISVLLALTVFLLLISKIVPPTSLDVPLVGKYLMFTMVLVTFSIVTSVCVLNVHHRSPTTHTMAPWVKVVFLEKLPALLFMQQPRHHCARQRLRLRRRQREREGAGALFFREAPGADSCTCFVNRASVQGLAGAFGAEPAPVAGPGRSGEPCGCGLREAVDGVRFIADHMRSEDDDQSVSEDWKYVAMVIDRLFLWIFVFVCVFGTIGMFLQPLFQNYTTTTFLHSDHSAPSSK
Mu-type opioid receptor, sequence (P35372 whole entry): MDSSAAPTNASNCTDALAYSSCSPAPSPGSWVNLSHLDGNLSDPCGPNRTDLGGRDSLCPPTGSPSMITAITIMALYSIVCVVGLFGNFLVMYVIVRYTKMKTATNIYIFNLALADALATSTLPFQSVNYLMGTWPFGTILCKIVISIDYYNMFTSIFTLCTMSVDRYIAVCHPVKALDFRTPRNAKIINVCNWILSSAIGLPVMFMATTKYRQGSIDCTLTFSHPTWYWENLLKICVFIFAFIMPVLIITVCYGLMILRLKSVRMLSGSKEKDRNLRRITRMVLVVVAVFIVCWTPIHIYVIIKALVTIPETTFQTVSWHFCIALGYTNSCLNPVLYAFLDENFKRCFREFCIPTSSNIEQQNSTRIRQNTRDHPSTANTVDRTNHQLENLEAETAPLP

`C=CC(=O)Nc1ccc(C(=O)Nc2[nH]nc3c2CN(C(=O)N[C@H](CN(C)C)c2ccccc2)C3(C)C)cc1`: the % of engagement in experiment [1] was -8.9%.

On to `COc1cc(N(C)c2ccnc3ccc(C(F)(F)F)cc23)cc(OC)c1OC`, for which the % binding in [2] amounted to 92%.

`Nc1cnc(N2CCc3cc(S(=O)(=O)Nc4c(F)cc(Cl)cc4F)cc(N4CCCC4=O)c32)nc1` [TP-020n]: the % of control in [3] came out at 100%. Besides, the % of inhibition in [4] is -15.8%.

Consider `N#Cc1cccc(-c2c[nH]c3ncnc(N4CCOCC4)c23)c1`, for which the % of inhibition in [5] came out at 3%.

Regarding `CC[C@@H]1[C@H](F)C(=O)N[C@@H]1COc1nccc2cc(C(N)=O)c(OC)cc12` [ZIMLOVISERTIB], the figures for the % of inhibition in experiment [6] and in [7] were -5.9% and -8.1%, respectively.

For the molecule `COc1cc(Nc2nc(C)cc(-c3cnn4nc(OC)ccc34)n2)cc(C(F)(F)F)c1`, in experiment [8], the % of control stood at 74%.

In experiment [9], `CC(=O)c1cc(-c2ccccc2OCC2CC2)c2ncccn12` came in with a % of control of 105%.

Turning to `COc1cc(C(=O)N2CC[C@@H](O)[C@@H](N)C2)cc2nc(-c3cc4ccccc4n3CC3CC3)n(C)c12`, the pXC50 in [10] was less than 4 M.

In [11], `CN(C(=O)c1cnn2cccnc12)c1cc2c(cc1N1CCOCC1)C(=O)N(C[C@@H](F)C(C)(C)O)C2` gave a dTM of -0.3 K.

`O[C@H]1CC[C@H](Nc2ncc3nc(Nc4c(F)cc(F)cc4F)n([C@H]4CCOC4)c3n2)CC1`: the % of control in [12] is 86%; in experiment [13] it was 100%; in [14], 47%; in [15], 29%; in [16], 13%; in experiment [17], 38%. Besides, the % of control was 39% in experiment [18], 51% in experiment [19], 31% in experiment [20] and 55% in experiment [21].
